Reference: patent US20180071317A1, “USE OF AGENTS THAT ALTER THE PERITUMORAL ENVIRONMENT FOR THE TREATMENT OF CANCER” (SERVICIO ANDALUZ DE SALUD, priority 2011, published 2018)

Key:
[1] = system: fibroblasts (PHF) co-cultivated with tumor cell carcinoma of urinary bladder (5637); experiment: Marker expression (IHC) in PHF co-cultured with 5637 tumor cells; type: cell-based, human; details: co-culture with 5637; SP 1 μM + antagonist 1 μM; 48 h
Procedure: (§1) All cultures were maintained 48 hours, following which the same cells were included in paraffin blocks for subsequent analysis of the expression of different markers by immunohistochemistry (see Example 1). […] All experiments were carried out sixfold. Analyzed markers in fibroblast cells (stromal cells) were: TGF-α, TGF-β1, TGF-β2, TGF-β3, SPARC, MMP-3, MMP-7, MMP-9, MMP-11, MMP-13 and MMP-14.

[2] = system: fibroblasts (PHF) co-cultured with human choriocarcinoma tumor cells (AC-1M32); experiment: Marker expression (IHC) in PHF co-cultured with AC-1M32 tumor cells; type: cell-based; details: co-culture with AC-1M32; SP 1 μM + antagonist 1 μM; 48 h;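 further: Read-out is the percentage of PHF fibroblasts positive for each marker, with cells grown in fresh healthy-donor blood plasma, six replicates, reference being fibroblasts cultured alone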
Procedure: as §1

[3] = system: fibroblasts (PHF) co-cultured with tumor cells of human breast carcinoma (MCF-7); experiment: Marker expression (IHC) in PHF co-cultured with MCF-7 tumor cells; type: cell-based; details: co-culture with MCF-7; SP 1 μM + antagonist 1 μM; 48 h;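 further: value is the percentage of fibroblasts positive for each marker, with fibroblasts cultured alone as reference, grown in fresh plasma from a healthy donor, six replicates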
Procedure: as §1

[4] = system: human primary fibroblasts (PHF); experiment: Marker expression (immunohistochemistry) in human primary fibroblasts with SP alone or with NK1 antagonists; type: cell-based; details: SP 1 μM + antagonist 1 μM; 48 h;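 further: primary human dermal fibroblasts, immunostained with rabbit polyclonal antibodies against each marker, value is percentage of stained cells among all cells counted in 20 fields at 400× per section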
[5] = system: human primary macrophages (PHM); experiment: Marker expression (immunohistochemistry) in human primary macrophages with SP alone or with NK1 antagonists; type: cell-based; details: SP 1 μM + antagonist 1 μM; 48 h
Procedure: In this sense the next step was to analyze the effect exerted by the treatment with non-peptide NK1 antagonists in human primary macrophages (PHM) obtained and purified from pleural effusion samples obtained from men with chronic age range between 45 and 55 years. Briefly, the pleural fluid from chronic (rich in macrophages) was centrifuged.
After 48 hours of culture, cells were harvested and cellular paraffin blocks were constructed for immunohistochemical analysis (see Example 1). To analyze the expression of markers EGF, MMP-9, VEGF and IL-8 antibodies were used as follows: EGF (rabbit monoclonal antibody, anti-EGF; 07-1432. Merck-Millipore), MMP-9 (polyclonal rabbit anti-MMP-9: SAB4501896, Sigma-Aldrich), VEGF (mouse monoclonal anti-VEGF, GF25-100UG, Merck-Millipore) and TNF-α (mouse monoclonal anti-TNF-α, number MAB 1021 catalogue, obtained from Merck-Millipore). All of these antibodies were used at a concentration of 1/1000. System for labelling with a secondary antibody specific for the primary antibodies obtained from rabbit or mouse was used, as was necessary in each case, both the Envision (Dako). All experiments were carried out sixfold.

[6] = system: fibroblasts (PHF) co-cultured with tumor cells, ovarian carcinoma (EFO-27); experiment: Marker expression (IHC) in PHF co-cultured with EFO-27 tumor cells; type: cell-based, human; details: co-culture with EFO-27; SP 1 μM + antagonist 1 μM; 48 h;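 further: values are the percentage of PHF fibroblasts positive for each marker, cultured in fresh plasma from a healthy human donor, each experiment run in six replicates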
Procedure: as §1

[7] = system: fibroblasts (PHF) co-cultured with tumor cells of human pancreatic adenocarcinoma (CAPAN-1); experiment: Marker expression (IHC) in PHF co-cultured with CAPAN-1 tumor cells; type: cell-based; details: co-culture with CAPAN-1; SP 1 μM + antagonist 1 μM; 48 h;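 further: cultures grown in fresh plasma from a healthy human donor, run in six replicates, value is percent of fibroblasts positive for each marker, compared with fibroblasts cultured alone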
Procedure: All cultures were maintained 48 hours, following which the same cells were included in paraffin blocks for subsequent analysis of the expression of different markers by immunohistochemistry (see Example 1). The primary antibodies used to perform immunohistochemical assays and their concentration are detailed in Example 2. All experiments were carried out sixfold. Analyzed markers in fibroblast cells (stromal cells) were: TGF-α, TGF-β1, TGF-β2, TGF-β3, SPARC, MMP-3, MMP-7, MMP-9, MMP-11, MMP-13 and MMP-14.

[8] = system: leukocyte cells (mono and polymorphonuclear) in co-culture with cells isolated from primary human tumors; experiment: Marker expression (IHC) in leukocytes co-cultured with primary human tumor cells (colon, pancreatic, lung carcinoma, glioma, melanoma); type: cell-based; details: SP 1 μM + antagonist 1 μM;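 further: tumor cells and leukocytes came from the same patients, co-culture contents were paraffin-embedded for immunohistochemistry with antibodies to TGF-β2 or NF-kB, leukocytes cultured alone served as control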
Procedure: To check that the interaction of the human primary tumor cells with cells of the immune/inflammatory (mono and polymorphonuclear leukocytes) cells, stimulates the secretion of substances of importance for survival and tumor progression, cultures were carried out using sets of immune cells/inflammatory (mono and polymorphonuclear leukocytes) with tumor cells obtained directly from primary human tumors of the same patients.
The same method described in Example 7 and 9 was used to obtain tumor cells from primary human tumors. Similarly cultured immune cells/inflammatory (mono and polymorphonuclear leukocytes) were used as control and secondly, cultured tumor cells isolated from patients in the presence of immune cells/inflammatory (mono and polymorphonuclear leukocytes).
Then, paraffin blocks were prepared with the contents of each of the groups mentioned previously for expression studies using immunohistochemistry. On this occasion, in order to identify the secretion of substances with importance for the survival and progression of tumor the following markers were analyzed: TGF-β2 (SAB4502956) and NF-kB (SAB4501992) using specific antibodies against them. All antibodies used were rabbit polyclonal antibodies obtained from Sigma Aldrich and were used at a concentration of 1/1000. Immunohistochemical techniques were performed and evaluated as described in previous examples.

[9] = co-culture with cells isolated from colon carcinoma
[10] = co-culture with cells isolated from glioma
[11] = co-culture with cells isolated from lung carcinoma
[12] = co-culture with cells isolated from melanoma
[13] = co-culture with cells isolated from pancreatic carcinoma

CC(=O)N1CCN([C@H]2CCN(C(=O)N(C)[C@H](C)c3cc(C(F)(F)F)cc(C(F)(F)F)c3)[C@@H](c3ccc(F)cc3C)C2)CC1 [Casopitant]
0%: PHF cells expressing MMP-3 [1] | PHF cells expressing MMP-7 [1] | PHF cells expressing MMP-9 [1] | PHF cells expressing MMP-11 [1] | PHF cells expressing MMP-13 [1] | PHF cells expressing MMP-14 [1] | PHF cells expressing SPARC [1] | PHF cells expressing TGF-α [1] | PHF cells expressing TGF-β1 [1] | PHF cells expressing TGF-β2 [1] | PHF cells expressing TGF-β3 [1] | PHF cells expressing MMP-3 [2] | PHF cells expressing MMP-7 [2] | PHF cells expressing MMP-9 [2] | PHF cells expressing MMP-11 [2] | PHF cells expressing MMP-13 [2] | PHF cells expressing MMP-14 [2] | PHF cells expressing SPARC [2] | PHF cells expressing TGF-α [2] | PHF cells expressing TGF-β1 [2] | PHF cells expressing TGF-β2 [2] | PHF cells expressing TGF-β3 [2] | PHF cells expressing MMP-3 [3] | PHF cells expressing MMP-7 [3] | PHF cells expressing MMP-9 [3] | PHF cells expressing MMP-11 [3] | PHF cells expressing MMP-13 [3] | PHF cells expressing MMP-14 [3] | PHF cells expressing SPARC [3] | PHF cells expressing TGF-α [3] | PHF cells expressing TGF-β1 [3] | PHF cells expressing TGF-β2 [3] | PHF cells expressing TGF-β3 [3] | PHF cells expressing MMP-3 [4] | PHF cells expressing MMP-7 [4] | PHF cells expressing MMP-9 [4] | PHF cells expressing MMP-11 [4] | PHF cells expressing MMP-13 [4] | PHF cells expressing MMP-14 [4] | PHF cells expressing SPARC [4] | PHF cells expressing TGFα [4] | PHF cells expressing TGFβ 1 [4] | PHF cells expressing TGFβ 2 [4] | PHF cells expressing TGFβ 3 [4] | macrophages expressing EGF [5] | macrophages expressing MMP-9 [5] | macrophages expressing VEGF [5] | PHF cells expressing MMP-3 [6] | PHF cells expressing MMP-7 [6] | PHF cells expressing MMP-9 [6] | PHF cells expressing MMP-11 [6] | PHF cells expressing MMP-13 [6] | PHF cells expressing MMP-14 [6] | PHF cells expressing SPARC [6] | PHF cells expressing TGF-α [6] | PHF cells expressing TGF-β1 [6] | PHF cells expressing TGF-β2 [6] | PHF cells expressing TGF-β3 [6] | PHF cells expressing MMP-3 [7] | PHF cells expressing MMP-7 [7] | PHF cells expressing MMP-9 [7] | PHF cells expressing MMP-11 [7] | PHF cells expressing MMP-13 [7] | PHF cells expressing MMP-14 [7] | PHF cells expressing SPARC [7] | PHF cells expressing TGF-α [7] | PHF cells expressing TGF-β1 [7] | PHF cells expressing TGF-β2 [7] | PHF cells expressing TGF-β3 [7] | Percentage of mononuclear leukocytes cells which expressed NF-kB [8, 9] | Percentage of mononuclear leukocytes cells which expressed TGF-β [8, 9] | Percentage of polymorphonuclear leukocytes cells which expressed NF-kB [8, 9] | Percentage of polymorphonuclear leukocytes cells which expressed TGF-β [8, 9] | Percentage of mononuclear leukocytes cells expressing NF-kB [8, 10] | Percentage of mononuclear leukocytes cells expressing TGF-β [8, 10] | Percentage of polymorphonuclear leukocytes cells expressing NF-kB [8, 10] | Percentage of polymorphonuclear leukocytes cells expressing TGF-β [8, 10] | Percentage of mononuclear leukocytes cells which expressed NF-kB [8, 11] | Percentage of mononuclear leukocytes cells which expressed TGF-β [8, 11] | Percentage of polymorphonuclear leukocytes cells which expressed NF-kB [8, 11] | Percentage of polymorphonuclear leukocytes cells which expressed TGF-β [8, 11] | Percentage of mononuclear leukocytes cells which expressed NF-kB [8, 12] | Percentage of mononuclear leukocytes cells which expressed TGF-β [8, 12] | Percentage of polymorphonuclear leukocytes cells which expressed NF-kB [8, 12] | Percentage of polymorphonuclear leukocytes cells which expressed TGF-β [8, 12] | Percentage of mononuclear leukocytes cells which expressed NF-kB [8, 13] | Percentage of mononuclear leukocytes cells which expressed TGF-β [8, 13] | Percentage of polymorphonuclear leukocytes cells which expressed NF-kB [8, 13] | Percentage of polymorphonuclear leukocytes cells which expressed TGF-β [8, 13]
